What was measured:
[1] = system: human; assay: Observation of skin symptom after oral administration of mTOR inhibitor; type: in vivo; conditions: orally 10 mg per day, FIG. 3
Procedure: An influence on a skin exerted by a mTOR inhibitor was observed.
Specifically, a mTOR inhibitor (everolimus (Afinitor (Registered Trademark)) was orally administered to a human by 10 mg per day, and a symptom appeared on the skin was observed.
Specifically, (a) of FIG. 3 is a photograph showing a state of the skin before the mTOR inhibitor is administered, and (b) of FIG. 3 is a photograph showing a state of the skin after the mTOR inhibitor is administered.

[2] = system: patient of renal angiomyolipoma in consequence of tuberous sclerosis; assay: Amount of sweating measured with local perspiration meter during and after oral mTOR inhibitor; type: in vivo, human; conditions: FIG. 4
Procedure: To a patient of renal angiomyolipoma in consequence of tuberous sclerosis, the mTOR inhibitor (everolimus (Afinitor (Registered Trademark))) was orally administered by 10 mg per day for approximately four months, and then the oral administration of the mTOR inhibitor was withdrawn.
During the period, after the oral administration of the mTOR inhibitor was started, an amount of sweating on a normal skin of the patient was measured with time and an amount of sweating on a skin of the patient on which a symptom of vitiligo appeared was measured with time.
The amount of sweating was measured with use of a local perspiration meter (quantitative axon reflex sweat amount measuring device) manufactured by Skinos Giken, and a specific measuring method was in conformity to a protocol attached to the device.

[3] = orally 10 mg per day for approximately four months

SMILES: CO[C@H]1C[C@@H]2CC[C@@H](C)[C@@](O)(O2)C(=O)C(=O)N2CCCC[C@H]2C(=O)O[C@H]([C@H](C)C[C@@H]2CC[C@@H](OCCO)[C@H](OC)C2)CC(=O)[C@H](C)/C=C(\C)[C@@H](O)[C@@H](OC)C(=O)[C@H](C)C[C@H](C)/C=C/C=C/C=C/1C [everolimus]
- symptom appeared on the skin [1]: dry skin
- amounts of sweating after withdrawal of administration ([2]; normal skin and vitiligo skin, after withdrawal of oral administration): restored
- amount of sweating on the normal skin [2, 3]: reduced
- amount of sweating on the skin showing the symptom of vitiligo [2, 3]: reduced

Source: patent publication US20170151219A1, “ANTIPERSPIRANT AGENT” (OSAKA UNIVERSITY, priority 2014, published 2017)
